Test results taken from US20190365776A1, “THERAPEUTIC AGENT FOR OCULAR FUNDUS DISEASE” (KYUSHU UNIVERSITY, NATIONAL UNIVERSITY CORPORATION, priority 2013, published 2019).

Test system: Kimba (trVEGF029) mice
Assay: Kimba (trVEGF029) mice, fluorescein fundus angiography and optical coherence tomography
Type: in vivo
Settings: 0.8% solution, ocular instillation three times a day for 2 weeks
Experimental: The effectiveness of the compound 1 in Kimba (trVEGF029) mice known as mice transgenic for VEGF gene, which develop retinal neovascularization, was examined in the following manner.
Compound 1 solution prepared in the same manner as in Example 1: 0.8% solution (instillation volume: 20 μL)
Test animals: Kimba mice (available from Lions Eye Institute Ltd., 6 mice per group)
One-month-old Kimba mice born on the same day were given saline (control) or the 0.8% compound 1 solution by ocular instillation three times a day for 2 weeks, and were then subjected to fluorescein fundus angiography and optical coherence tomography under anesthesia for evaluation. More specifically, in fluorescein fundus angiography, each of the mice was first given tropicamide by ocular instillation to cause mydriasis and then anesthetized by intraperitoneal administration of 100 mg/kg of Ketalar and 10 mg/kg of Selactar, given 6 μL/g of a contrast agent for fluorescein fundus angiography by intraperitoneal injection, and subjected to fluorescein fundus angiography using Heidelberg Retina Angiograph (HRA, Heidelberg, Germany). […]

C[C@H]1CNCCCN1S(=O)(=O)c1cccc2cncc(F)c12 [compound 1, (S)-(−)-1-(4-fluoro-5-isoquinolinesulfonyl)-2-methyl-1,4-homopiperazine]
edema (fluorescein fundus angiography / optical coherence tomography images): suppression of edema is observed
average maximum retinal thickness (mean±standard error) (optical coherence tomography, saline control 361.8±36.1): 256.7±35.7 μm
